One assay concerns the target NTPDase1. Further details: method as in Lecka et al., 2013. The note with it: ref Lecka et al., 2013; cited from earlier work.
In assay [1] the target is T1, human NTPDase2 (Homo sapiens, UniProt Q9Y5L3).
T1 construct: expressed in transfected cells; host or cells: COS-7 cells (membrane preparation)
T1 sequence (Q9Y5L3 1-495): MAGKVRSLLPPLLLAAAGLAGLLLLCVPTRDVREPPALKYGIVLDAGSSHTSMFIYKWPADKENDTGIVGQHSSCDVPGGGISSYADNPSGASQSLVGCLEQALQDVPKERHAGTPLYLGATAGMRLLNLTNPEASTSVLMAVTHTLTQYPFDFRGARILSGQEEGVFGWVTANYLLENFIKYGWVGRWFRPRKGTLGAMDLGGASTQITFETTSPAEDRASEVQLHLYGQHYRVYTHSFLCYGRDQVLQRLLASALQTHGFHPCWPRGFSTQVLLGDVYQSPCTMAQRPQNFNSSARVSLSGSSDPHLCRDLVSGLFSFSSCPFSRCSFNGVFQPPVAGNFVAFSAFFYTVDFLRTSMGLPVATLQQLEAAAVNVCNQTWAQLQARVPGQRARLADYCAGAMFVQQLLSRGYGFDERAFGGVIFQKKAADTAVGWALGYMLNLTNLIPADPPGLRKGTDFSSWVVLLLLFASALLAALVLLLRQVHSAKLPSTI
The settings on record: ref Lévesque et al., 2007; cited from earlier work.

For assay [2], the target named is T2, human NTPDase8 (Homo sapiens, UniProt Q5MY95).
T2 construct: expressed in transfected cells; host or cells: COS-7 cells (membrane preparation)
T2 sequence (Q5MY95 1-495): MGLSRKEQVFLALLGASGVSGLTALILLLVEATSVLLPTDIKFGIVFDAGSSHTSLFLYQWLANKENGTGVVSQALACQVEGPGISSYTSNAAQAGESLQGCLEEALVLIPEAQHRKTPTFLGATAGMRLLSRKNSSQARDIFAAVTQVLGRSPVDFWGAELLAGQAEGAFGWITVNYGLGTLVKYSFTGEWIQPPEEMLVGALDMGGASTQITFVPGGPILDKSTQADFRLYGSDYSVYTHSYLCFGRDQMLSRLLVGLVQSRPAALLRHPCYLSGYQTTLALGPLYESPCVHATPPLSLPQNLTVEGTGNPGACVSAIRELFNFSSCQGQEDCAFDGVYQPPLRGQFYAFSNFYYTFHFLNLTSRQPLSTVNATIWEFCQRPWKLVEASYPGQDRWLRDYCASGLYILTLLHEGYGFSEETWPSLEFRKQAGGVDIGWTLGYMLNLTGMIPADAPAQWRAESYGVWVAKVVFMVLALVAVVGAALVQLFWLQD
Set-up: method as in Lévesque et al., 2007. The settings on record: ref Lévesque et al., 2007; cited from earlier work.

A further assay concerns the target T3, human NTPDase1 (Homo sapiens, UniProt P49961).
T3 construct: expressed in transfected cells; host or cells: COS-7 cells (membrane preparation)
T3 sequence (P49961 1-510): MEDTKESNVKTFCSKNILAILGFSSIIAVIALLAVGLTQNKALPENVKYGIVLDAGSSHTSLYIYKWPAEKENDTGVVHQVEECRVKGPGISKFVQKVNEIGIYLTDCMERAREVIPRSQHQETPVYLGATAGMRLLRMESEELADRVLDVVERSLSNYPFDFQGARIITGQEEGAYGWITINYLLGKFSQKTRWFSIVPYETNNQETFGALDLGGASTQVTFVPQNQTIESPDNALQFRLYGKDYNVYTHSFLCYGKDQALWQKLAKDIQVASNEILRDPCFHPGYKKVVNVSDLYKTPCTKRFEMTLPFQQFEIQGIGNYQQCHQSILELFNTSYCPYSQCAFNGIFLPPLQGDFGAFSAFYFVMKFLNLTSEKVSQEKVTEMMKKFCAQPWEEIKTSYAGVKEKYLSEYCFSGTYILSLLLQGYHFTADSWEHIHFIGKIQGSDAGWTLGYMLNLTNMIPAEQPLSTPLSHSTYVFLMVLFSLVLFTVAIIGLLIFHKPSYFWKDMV
The experiment in a line: Malachite green assay, human NTPDase1. It counts as biochemical. The note with it: 2 μM compound; 50 µM ATP; COS-7 membrane preparation; read-out: % inhibition at 2 μM concentration, NTPDase1. The gist of the method:
(§1)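 COS-7 membranes expressing each NTPDase were preincubated with compound for 5 min at 37 °C, pH 7.4 HEPES buffer with 2 mM CaCl2/1 mM MgCl2. ATP was 50 µM for NTPDase1 and 100 µM for -2, -3, -8; reaction ran 15 min at 37 °C. Released phosphate read by malachite green at 600 nm; screen at 2 µM, IC50 over 0.03–30 µM in 2% DMSO.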

Assay [3] has as its target T1, human NTPDase2. The experiment in a line: Malachite green assay, human NTPDase2. It counts as biochemical. A digest of the protocol:
as §1

Another assay has as its target T4, human NTPDase3 (Homo sapiens, UniProt O75355).
T4 construct: expressed in transfected cells; host or cells: COS-7 cells (membrane preparation)
T4 sequence (O75355 1-529): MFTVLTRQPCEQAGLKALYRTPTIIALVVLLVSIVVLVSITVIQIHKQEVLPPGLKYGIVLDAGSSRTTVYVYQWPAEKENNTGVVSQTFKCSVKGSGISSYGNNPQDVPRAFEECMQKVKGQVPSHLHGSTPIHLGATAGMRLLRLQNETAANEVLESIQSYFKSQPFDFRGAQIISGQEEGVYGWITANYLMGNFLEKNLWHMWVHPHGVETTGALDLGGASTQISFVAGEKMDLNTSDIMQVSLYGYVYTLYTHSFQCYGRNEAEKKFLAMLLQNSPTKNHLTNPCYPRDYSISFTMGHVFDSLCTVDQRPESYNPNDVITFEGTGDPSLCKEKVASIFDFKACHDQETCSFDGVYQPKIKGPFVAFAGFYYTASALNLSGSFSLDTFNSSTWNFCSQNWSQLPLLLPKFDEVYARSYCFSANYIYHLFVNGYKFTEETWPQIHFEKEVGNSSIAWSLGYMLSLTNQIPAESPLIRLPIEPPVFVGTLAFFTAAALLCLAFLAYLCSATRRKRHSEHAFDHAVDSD
Nature of the assay: Malachite green assay, human NTPDase3. The assay is classed as biochemical. The note with it: 2 μM compound; 100 µM ATP; COS-7 membrane preparation; read-out: % inhibition at 2 μM concentration, NTPDase3. The gist of the method:
as §1

For assay [4], the target named is T2, human NTPDase8. Nature of the assay: Malachite green assay, human NTPDase8. The assay is classed as biochemical. The settings on record: 2 μM compound; 100 µM ATP; COS-7 membrane preparation; read-out: % inhibition at 2 μM concentration, NTPDase8. The gist of the method: as §1
For the next assay, the system named is rat CD73. Set-up: method as in Baqi et al., 2010. The settings on record: 1 mM concentration; ref Baqi et al., 2010; cited from earlier work.

A word on the Ki: it is a measure of affinity in units of concentration, obtained from inhibition or displacement. As for `CCCCSc1nc2c(N)ncnc2n1[C@@H]1O[C@H](COP(=O)(O)OP(=O)(O)OP(=O)(O)O)[C@@H](O)[C@H]1O` [8-BuS-ATP], on NTPDase1, the Ki was 800 nM.

Turning to `CCN(CC)c1ncnc2c1ncn2[C@@H]1O[C@H](COP(=O)(O)OP(=O)(O)C(Br)(Br)P(=O)(O)O)[C@@H](O)[C@H]1O` [ARL67156], the “inhibition of human NTPDase2 (in words)” value on human NTPDase2 [1] is on record as “does not inhibit”. At human NTPDase8 [2], the “inhibition of human NTPDase8 (in words)” value is “does not inhibit”.

What is called IC50 is the concentration that inhibits the measured activity by half. As for `Nc1c(S(=O)(=O)O)cc(Nc2cc3ccccc3c3ccccc23)c2c1C(=O)c1ccccc1C2=O` [Compound 20, 1-amino-4-(9-phenanthrylamino)-9,10-dioxo-9,10-dihydroanthracene-2-sulfonate], the inhibition at 2 µM on human NTPDase1 was -7%; on human NTPDase3, -5%; at human NTPDase8 [4] it was 6%. The IC50 on human NTPDase2 [3] (100 µM ATP, COS-7 membrane preparation, read-out: IC50 ± SEM, NTPDase2) amounted to 539 ± 290 nM. Further, on human NTPDase2 [3] (Hanes-Woolf plot, 25-200 µM ATP, inhibitor 0, 0.25, 0.5, 1 µM), the “inhibition type, NTPDase2” value is “non-competitive”. In the assay with rat CD73, the “% inhibition of CD73 at 1 mM concentration” value was 58%.

The values above are taken from article PMC7481482, “Development of Anthraquinone Derivatives as Ectonucleoside Triphosphate Diphosphohydrolase (NTPDase) Inhibitors With Selectivity for NTPDase2 and NTPDase3” (Frontiers in Pharmacology, 2020).
